Data: patent US9073835B2, “N-acylthiourea and N-acylurea inhibitors of the Hedgehog protein signalling pathway” (Centre National De La Recherche Scientifique, priority 2008, dated 2015)

System: Hedgehog protein signaling pathway
Assay: Inhibition of SAG-induced alkaline phosphatase activity (differentiation) in C3H10T1/2 cells
Assay type: cell-based
Settings: Mus musculus; for inhibition at 10 µM: C3H 10T1/2, 10 μM test compound, percentage of alkaline phosphatase activity induced by SAG; for IC50: C3H 10T1/2, after induction by 0.1 μM SAG
Method: The effect of compounds with formula (I) as claimed in the invention on inhibition of the Hedgehog protein signaling pathway was determined by analysis of differentiation in the pluripotent fibroblast cell line C3H10T1/2 after activation of this pathway in these cells using a synthetic activator: SAG.
The compounds with formula (I) to be tested were dissolved in dimethylsulfoxide to a concentration of 10 mM, then stored at a temperature of −20° C. until use.
The pluripotent fibroblast cell line C3H10T1/2 (ATCC) was cultivated under the conditions recommended by the ATCC. These cells were activated using 0.1 μM of SAG, employing the methods described by Chen et al., Proc. Natl. Acad. Sci. USA, 2002, 99, 14071 and Frank-Kamenetsky et al., J. Biol., 2002, 1, 10.
Activation with SAG provokes differentiation of the cell line and allows them to express alkaline phosphatase. It is then possible to measure the activity of the Hedgehog protein signaling pathway by measuring the alkaline phosphatase activity.
The C3H10T1/2 cells were plated onto 96-well plates at a density of […], 24 hours before addition of the test compounds in a concentration of 1 nM to 30 μM and in the presence of 0.1 μM of SAG using DMEM supplemented with 10% fetal calf serum as the culture medium. The tests were carried out in quadruplicate. The plates were then incubated for 5-6 days at a temperature of 37° C. in an atmosphere of 5% CO2. The cells were washed in a cold phosphate buffer (“Phosphate Buffer Serum”: PBS) then lysed by sonication at 4° C. in 50 μl of a solution containing 0.9% of NaCl and 0.2% of Triton X-100.
By way of comparison, the activity of a known inhibitor of the Hedgehog protein signaling pathway, CURIS 61 414, as described, for example, by Frank-Kamenetsky M. et al. (J. Biol., 2002, 1, 10), was tested under the same conditions as those used to test the various compounds with formula (I) as claimed in the invention.
The alkaline phosphatase activity measurement in the lysates obtained was then carried out using the method described by Pepinsky et al. (J. Biol. Chem., 1998, 273, 14037). After adding 100 μl of reaction buffer (200 mM Tris-HCl; pH 10.5; 0.4 M of 2-amino-2-methylpropanol and 8 mM of MgCl2) and 50 μl of substrate (4 mM of disodium p-nitrophenyl phosphate), the lysates were incubated at 37° C. for 30-60 min, then the optical density was read at a wavelength of 415 nm.

IC50	SMILES	inhibition at 10 µM
–	COc1cc(C(=O)NC(=S)Nc2ccc(Cl)c(C(=O)Nc3ccc(Cl)cc3)c2)cc(OC)c1OC [Compound 43]	> 80%
–	COc1cc(C(=O)NC(=S)Nc2cccc(NC(=O)c3ccc(-c4ccccc4)cc3)c2C)cc(OC)c1OC [Compound 46]	5 to 20%
–	COc1cc(C(=O)NC(=O)Nc2cccc(NC(=O)c3ccc4ccccc4c3)c2)cc(OC)c1OC [Compound 16, N-[[[3-(2-naphthoylamino)phenyl]amino]oxomethyl]-3,4,5-methoxy-benzamide]	5 to 20%
0.01 to 1 µM	CCOc1cc(C(=O)NC(=S)Nc2cccc(NC(=O)c3ccccc3)c2)cc(OC)c1OCC [Compound 20, N-[[[3-(benzoylamino)phenyl]amino]thioxomethyl]-3,4-ethoxy-5-methoxy-benzamide]	> 80%
–	COc1cc(C(=O)NC(=O)Nc2cccc(NC(=O)C(C)C)c2)cc(OC)c1OC [Compound 17]	> 80%
–	COc1cc(C(=O)NC(=S)Nc2cccc(NC(=O)C(C)C)c2)cc(OC)c1OC [Compound 10, N-[[[3-(isopropoylcarboxylamino)phenyl]amino]thioxomethyl]-3,4,5-methoxy-benzamide]	5 to 20%
–	O=C(NC(=O)c1ccccc1)Nc1cccc(NC(=O)c2ccccc2)c1 [Compound 50, N-[[[-3-(benzoylamino)phenyl]amino]oxomethyl]-benzamide]	> 80%
–	COc1cc(C(=O)NC(=O)Nc2cccc(NC(=O)Nc3ccc(-c4ccccc4)cc3)c2)cc(OC)c1OC [Compound 59, N-(3-(3-biphenyl-4-ylureido)phenylcarbamoyl)-3,4,5-trimethoxybenzamide]	> 80%
–	COc1cc(C(=O)NC(=S)Nc2cccc(NC(=O)c3cccc4ccccc34)c2)cc(OC)c1OC [Compound 12, N-[[[3-(1-naphthoylamino)phenyl]amino]thioxomethyl]-3,4,5-methoxy-benzamide]	20 to 80%
1 to 3 µM	COc1ccc(C(=O)NC(=S)Nc2cccc(NC(=O)c3ccccc3)c2)c(OC)c1 [Compound 22, N-[[[3-(benzoylamino)phenyl]amino]thioxomethyl]-2,4-methoxy-benzamide]	20 to 80%
0.01 to 1 µM	COc1cc(C(=O)NC(=S)Nc2cccc(NC(=O)Nc3ccc(-c4ccccc4)cc3)c2)cc(OC)c1OC [Compound 52, N-(3-(3-biphenyl-4-ylureido)phenylcarbamothioyl)-3,4,5-trimethoxybenzamide]	> 80%
1 to 3 µM	COc1ccccc1C(=O)Nc1cccc(NC(=S)NC(=O)c2cc(OC)c(OC)c(OC)c2)c1 [Compound 4, N-[[[3-(2-methoxy-benzoylamino)phenyl]amino]thioxomethyl]-3,4,5-methoxy-benzamide]	> 80%
0.01 to 1 µM	CCOc1c(OC)cc(C(=O)NC(=S)Nc2cccc(NC(=O)c3ccccc3)c2)cc1OC [Compound 19, N-[[[3-(benzoylamino)phenyl]amino]thioxomethyl]-3,5-methoxy-4-ethoxy-benzamide]	> 80%
–	COc1cc(C(=O)NC(=S)Nc2cccc(NC(=O)c3ccco3)c2)cc(OC)c1OC [Compound 14, N-[[[3-(2-furoylamino)phenyl]amino]thioxomethyl]-3,4,5-methoxy-benzamide]	20 to 80%
–	COc1cc(C(=O)NC(=S)Nc2cccc(NC(=O)C3CCCCC3)c2)cc(OC)c1OC [Compound 8, N-[[[3-(-cyclohexylcarboxylamino)phenyl]amino]thioxomethyl]-3,4,5-methoxy-benzamide]	20 to 80%
1 to 3 µM	COc1cc(C(=O)NC(=S)Nc2cccc(NC(=O)Nc3ccccc3)c2)cc(OC)c1OC [Compound 51, 3,4,5-trimethoxy-N-(3-(3-phenylureido)phenylcarbamothioyl)-benzamide]	> 80%
–	COc1ccc(C(=O)NC(=O)Nc2cccc(NC(=O)c3ccccc3)c2)cc1 [Compound 49, N-[[[-3-(benzoylamino)phenyl]amino]oxomethyl]-4-methoxy-benzamide]	20 to 80%
